Measured values published in paper PMC12056086 (Nature Communications, 2025).

Experiments:
[1] = biological target: human dopamine transporter (hDAT) (Homo sapiens, UniProt Q01959, V152I)
[2] = biological target: human dopamine transporter (hDAT) (Homo sapiens, UniProt Q01959); experiment: cell-based; details: read-out: single-molecule AFM force spectroscopy on live cells
[3] = biological target: human dopamine transporter (hDAT) (Homo sapiens, UniProt Q01959, K92A)
[4] = biological target: human dopamine transporter (hDAT) (Homo sapiens, UniProt Q01959, K384A)
Chain of human dopamine transporter (hDAT) (Homo sapiens, UniProt Q01959, K384A) (Q01959 whole entry K384A): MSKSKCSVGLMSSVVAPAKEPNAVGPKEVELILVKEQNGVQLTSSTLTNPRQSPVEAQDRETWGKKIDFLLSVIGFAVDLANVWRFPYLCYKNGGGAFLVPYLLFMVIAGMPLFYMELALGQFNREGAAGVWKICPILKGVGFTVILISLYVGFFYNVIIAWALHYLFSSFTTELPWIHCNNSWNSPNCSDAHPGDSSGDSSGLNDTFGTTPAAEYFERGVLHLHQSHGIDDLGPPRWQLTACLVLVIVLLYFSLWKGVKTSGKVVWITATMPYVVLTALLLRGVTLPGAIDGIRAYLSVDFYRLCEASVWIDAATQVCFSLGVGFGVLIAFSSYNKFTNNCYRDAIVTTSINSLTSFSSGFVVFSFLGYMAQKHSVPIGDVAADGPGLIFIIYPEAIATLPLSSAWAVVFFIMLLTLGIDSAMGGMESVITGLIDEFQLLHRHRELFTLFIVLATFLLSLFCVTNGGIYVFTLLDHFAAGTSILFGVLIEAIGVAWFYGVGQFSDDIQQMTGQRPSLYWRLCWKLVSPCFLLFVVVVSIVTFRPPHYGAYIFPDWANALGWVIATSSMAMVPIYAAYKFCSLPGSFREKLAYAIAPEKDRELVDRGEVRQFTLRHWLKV

[5] = biological target: human dopamine transporter (hDAT) (Homo sapiens, UniProt Q01959, G386H)
Chain of human dopamine transporter (hDAT) (Homo sapiens, UniProt Q01959, G386H) (Q01959 whole entry G386H): as the sequence (Q01959 whole entry K384A) above, with A384K, G386H counted along it

Chain of human dopamine transporter (hDAT) (Homo sapiens, UniProt Q01959, V152I) (Q01959 whole entry V152I): as the sequence (Q01959 whole entry K384A) above, with V152I, A384K counted along it
Chain of human dopamine transporter (hDAT) (Homo sapiens, UniProt Q01959, K92A) (Q01959 whole entry K92A): as the sequence (Q01959 whole entry K384A) above, with K92A, A384K counted along it
Chain of human dopamine transporter (hDAT) (Homo sapiens, UniProt Q01959) (Q01959 whole entry): as the sequence (Q01959 whole entry K384A) above, with A384K counted along it

Q: With `NCCc1ccc(O)c(O)c1` [dopamine] as the molecule, how does the “single-molecule AFM force spectroscopy on live cells” value [1] read?
A: The value was “(V152I) also reduced the population of stronger binding events (d) while the overall binding activity is preserved”.

Q: And the koff [2]?
A: The koff was 0.11 ± 0.03 s⁻¹.

Q: And the “single-molecule AFM force spectroscopy on live cells” value [3]?
A: Its value is “both K92A and K384A diminished the population of weaker unbinding events, indicating that both lysines are involved in the S2 site”.

Q: And the “single-molecule AFM force spectroscopy on live cells” value [4]?
A: The value was “both K92A and K384A diminished the population of weaker unbinding events, indicating that both lysines are involved in the S2 site”.

Q: What about the “single-molecule AFM force spectroscopy on live cells” value [5] of the same molecule?
A: The value was “dopamine was still able to bind to the S2 site of DAT-G386H, albeit with lower binding strength”.
